Measured values reported in paper PMC4552316 (Nature chemical biology, 2011).

Experiments:
[1] = target: E. coli GMPR (EcGMPR), GMP reductase (Escherichia coli, UniProt P60560); test: spectrophotometric enzyme inhibition assay; assay type: biochemical
[2] = target: T1, human GMPR type 2 (hGMPR2) (Homo sapiens, UniProt Q9P2T1); test: X-ray crystal structure of E•IMP•NADPH, […] Å; assay type: binding
T1 sequence (Q9P2T1 1-348): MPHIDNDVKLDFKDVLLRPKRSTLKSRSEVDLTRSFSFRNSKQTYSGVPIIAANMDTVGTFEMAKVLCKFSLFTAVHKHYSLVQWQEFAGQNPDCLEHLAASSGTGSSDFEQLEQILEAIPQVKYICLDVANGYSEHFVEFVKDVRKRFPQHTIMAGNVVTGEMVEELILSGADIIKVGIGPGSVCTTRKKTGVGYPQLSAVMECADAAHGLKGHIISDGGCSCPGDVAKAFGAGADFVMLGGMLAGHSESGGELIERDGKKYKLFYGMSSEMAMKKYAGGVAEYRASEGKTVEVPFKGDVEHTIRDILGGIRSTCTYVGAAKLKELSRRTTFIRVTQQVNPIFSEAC

[3] = tested on: O=c1[nH]c(Cl)nc2c1ncn2[C@@H]1O[C@H](COP(=O)(O)O)[C@@H](O)[C@H]1O; test: purified protein; conditions: NADPH or NADP+ catalytic Cys186 (E-XMP* intermediate; none with C186A)
[4] = tested on: CC(=O)C1=CN([C@@H]2O[C@H](COP(=O)(O)OP(=O)(O)OC[C@H]3O[C@@H](n4cnc5c(N)ncnc54)[C@H](OP(=O)(O)O)[C@@H]3O)[C@@H](O)[C@H]2O)C=CC1; test: purified protein; conditions: 2-Cl-IMP (co-substrate); varied: cofactor
crystal structure = target: the molecule itself; test: crystal structure

Chain of E. coli GMPR (EcGMPR), GMP reductase (P60560 whole entry): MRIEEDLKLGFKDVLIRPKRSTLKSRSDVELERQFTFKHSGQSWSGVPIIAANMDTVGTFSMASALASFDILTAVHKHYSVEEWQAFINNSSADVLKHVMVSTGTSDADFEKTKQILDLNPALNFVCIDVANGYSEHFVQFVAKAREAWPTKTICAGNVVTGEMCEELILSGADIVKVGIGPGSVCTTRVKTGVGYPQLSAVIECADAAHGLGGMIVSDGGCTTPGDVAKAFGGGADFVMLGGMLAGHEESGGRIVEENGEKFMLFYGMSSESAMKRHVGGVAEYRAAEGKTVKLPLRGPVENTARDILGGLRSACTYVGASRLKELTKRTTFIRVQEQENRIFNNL

Molecule: NC(=O)c1ncn([C@@H]2O[C@H](COP(=O)(O)O)[C@@H](O)[C@H]2O)n1 [Ribavirin monophosphate]
- Ki [1]: 98 ± 25 µM

Molecule: NC(=O)C1=CN([C@@H]2O[C@H](COP(=O)(O)OP(=O)(O)OC[C@H]3O[C@@H](n4cnc5c(N)ncnc54)[C@H](OP(=O)(O)O)[C@@H]3O)[C@@H](O)[C@H]2O)C=CC1 [NADPH]
- X-ray crystal structure of E•IMP•NADPH, 1.7 Å [2]: NADPH was found in two conformations in the seven monomers, an "in" conformation and an "out" conformation

Molecule: E. coli GMPR (EcGMPR), GMP reductase (Escherichia coli K-12)
- Km [3]: 7.8 ± 1.1 µM
- Km [4]: 11.0 ± 2.0 µM

Molecule: NC(=O)c1ncn([C@@H]2O[C@H](COP(=O)(O)O)[C@@H](O)[C@H]2O)c1O [mizoribine monophosphate]
- Ki [1]: 0.015 ± 0.003 µM

B1: human GMP reductase type 2 (enzyme)
chain: LDFKDVLLRPKRSTLKSRSEVDLTRSFSFRNSKQTYSGVPIIAANMDTVGTFEMAKVLCKFSLFTAVHKHYSLVQWQEFAGQNPDCLEHLAASSGTGSSDFEQLEQILEAIPQVKYICLDVANGYSEHFVEFVKDVRKRFPQHTIMAGNVVTGEMVEELILSGADIIKVGIGPGSVCTTRKKTGVGYPQLSAVMECADAAHGLKGHIISDGGCSCPGDVAKAFGAGADFVMLGGMLAGHSESGGELIERDGKKYKLFYGMSSEMAMKKYAGGVAEYRASEGKTVEVPFKGDVEHTIRDILGGIRSTCTYVGAAKLKELSRRTTFIRVTQQVN
- stoichiometry N (crystal structure): 4
